US11992495B2 (THE REGENTS OF THE UNIVERSITY OF CALIFORNIA, priority 2017, dated 2024)

Test system: lymph node mononuclear cells (T cell proliferation in response to HEL)
Experiment: T cell recall responses to HEL, 3H-thymidine uptake (proliferation)
Assay type: cell-based, Mice
Details: alprazolam (Xanax) alone, any of the dosages tested
Procedure: Mice were injected with hen egg lysozyme (HEL, a prototypic foreign antigen) in 50% complete Freund's adjuvant (CFA) in their hind food-pad. […] During the last 16 h of a 96 h incubation period, […] ^3H thymidine was added into each well.

SMILES: Cc1nnc2n1-c1ccc(Cl)cc1C(c1ccccc1)=NC2 [alprazolam]
- effect on T cell proliferation: did not have a significant effect
